# Laboratory results from ChEMBL document CHEMBL1156802, “Design and synthesis of novel diaminoquinazolines with in vivo efficacy for beta-catenin/T-cell transcriptional factor 4 pathway inhibition” (J Med Chem, 2010).
# Assay: Metabolic stability in rat liver microsomes assessed as half life
# Format: ADME, Microsome
row,half-life,SMILES
1,6 min,Cc1ccc2c(NCc3ccc(NC(=O)c4ccc(F)cc4)cc3)nc(N3CCOCC3)nc2c1
2,7 min,Cc1ccc2c(NCc3ccc(NC(=O)c4ccc(F)cc4)cc3)nc(N3CCC3)nc2c1
3,15 min,CNc1nc(NCc2ccc(NC(=O)c3ccc(F)cc3)cc2)c2c(C)cccc2n1
4,22 min,CN(C)c1nc(NCc2ccc(NC(=O)c3ccc(F)cc3)cc2)c2ccc(CO)cc2n1
5,2 min,Cc1ccc2c(NCc3ccc(NC(=O)c4ccc(F)cc4)cc3)nc(N3CCCC3)nc2c1
6,30 min,CNc1nc(NCc2ccc(NC(=O)c3ccc(C(F)(F)F)cc3)cc2)c2ccccc2n1
7,2 min,CC(=O)c1ccc2c(NCc3ccc(NC(=O)c4ccc(F)cc4)cc3)nc(N(C)C)nc2c1
8,6 min,CC(O)c1ccc2c(NCc3ccc(NC(=O)c4ccc(F)cc4)cc3)nc(N(C)C)nc2c1 (racemic)
9,21 min,CNc1nc(NCc2ccc(NC(=O)c3ccc(F)cc3)cc2)c2ccccc2n1
10,6 min,CNc1nc(NCc2ccc(NC(=O)c3ccc(F)cc3)cc2)c2cc(C)ccc2n1
11,2 min,CNc1nc(NCc2ccc(NC(=O)c3ccc(Cl)nc3)cc2)c2c(C)cccc2n1
12,16 min,CNc1nc(NCc2ccc(NC(=O)c3ccc(-c4ccccc4)cc3)cc2)c2ccccc2n1
13,22 min,CNc1nc(NCc2ccc(NC(=O)c3ccc(Cl)nc3)cc2)c2cccc(C)c2n1
14,12 min,Cc1ccc2c(NCc3ccc(NC(=O)c4ccc(F)cc4)cc3)nc(N(C)C)nc2c1
15,> 30 min,CNc1nc(NCc2ccc(NC(=O)c3ccc(F)cc3)cc2)c2ccc(C)cc2n1
16,3 min,CN(C)Cc1ccc2c(NCc3ccc(NC(=O)c4ccc(F)cc4)cc3)nc(N(C)C)nc2c1
17,10 min,CNc1nc(NCc2ccc(NC(=O)c3ccc(F)cc3)cc2)c2cccc(C)c2n1
18,12 min,CNc1nc(NCc2ccc(NC(=O)c3ccc(Cl)cc3)cc2)c2c(C)cccc2n1
19,8 min,CNc1nc(NCc2ccc(NC(=O)c3ccc(Cl)nc3)cc2)c2ccc(C)cc2n1

row,half-life,SMILES
1,6 min,C=Cc1ccc2c(NCc3ccc(NC(=O)c4ccc(F)cc4)cc3)nc(N(C)C)nc2c1
2,11 min,CN(C)c1nc(NCc2ccc(NC(=O)c3ccc(F)cc3)cc2)c2ccc(C#N)cc2n1
3,11 min,CNc1nc(NCc2ccc(NC(=O)c3ccc(Cl)cc3)cc2)c2cccc(C)c2n1
4,3 min,Cc1ccc2c(NCc3ccc(NC(=O)c4ccc(F)cc4)cc3)nc(N3CCNC(C)(C)C3)nc2c1
5,6 min,CCc1ccc2c(NCc3ccc(NC(=O)c4ccc(F)cc4)cc3)nc(N(C)C)nc2c1
6,13 min,CNc1nc(NCc2ccc(NC(=O)c3ccc(Cl)nc3)cc2)c2cc(C)ccc2n1
7,6 min,CNc1nc(NCc2ccc(NC(=O)c3ccc(Cl)cc3)cc2)c2cc(C)ccc2n1
8,3 min,CN(C)c1nc(NCc2ccc(NC(=O)c3ccc(F)cc3)cc2)c2ccc(C=O)cc2n1
9,3 min,Cc1ccc2c(NCc3ccc(NC(=O)c4ccc(F)cc4)cc3)nc(N3CCCCC3)nc2c1
10,18 min,CNc1nc(NCc2ccc(NC(=O)c3ccc(Cl)cc3)cc2)c2ccc(C)cc2n1
11,15 min,CNc1nc(NCc2ccc(NC(=O)c3cccc(Cl)c3)cc2)c2ccccc2n1
12,30 min,CNc1nc(NCc2ccc(NC(=O)c3ccc(Cl)cc3)cc2)c2ccccc2n1
13,6 min,CCCNc1nc(NCc2ccc(NC(=O)c3ccc(F)cc3)cc2)c2ccc(C)cc2n1
14,10 min,CNc1nc(NCc2ccc(NC(=O)c3ccc(C#N)cc3)cc2)c2ccccc2n1
15,5 min,Cc1ccc2c(NCc3ccc(NC(=O)c4ccc(F)cc4)cc3)nc(N3CCNCC3)nc2c1
16,3 min,Cc1ccc2c(NCc3ccc(NC(=O)c4ccc(F)cc4)cc3)nc(N3CCN(C)CC3)nc2c1
17,4 min,Cc1ccc2c(NCc3ccc(NC(=O)c4ccc(F)cc4)cc3)nc(N3CCN[C@H](C)C3)nc2c1
18,17 min,CNc1nc(NCc2ccc(NC(=O)c3ccc(Cl)nc3)cc2)c2ccccc2n1
19,16 min,CNc1nc(NCc2ccc(NC(=O)c3ccc(C)cc3)cc2)c2ccccc2n1
